Source: patent US12582613B2, “Biomimetic, reactive oxygen species-detonable nanoclusters for antirestenotic therapy” (University of Virginia Patent Foundation, priority 2021, dated 2026)

Columns and labels:
PDGF-BB-stimulated VSMC = test: PDGF-BB-induced VSMC proliferation assay (CellTiter-Glo); assay type: cell-based, Human; conditions: 1 μM RVX equivalent
Method: Cell Culture. Human aortic VSMC and culture media (SmBm-2 basal medium for experimental purposes, and SmGm-2 complete medium for expansion) were purchased from Lonza (Walkersville, MD). Cells between passages 5 and 7 were maintained at 37° C. with 5% CO2 and used for all experiments. As established in previous studies, Accutase (ThermoFisher Scientific, Waltham, MA) instead of Trypsin was used for cell detachment to ensure fast cell adhesion and optimal cell status.
Cell Viability Assay of the Nanoclusters. The cytotoxicity and anti-proliferation of the nanoclusters on VSMC was evaluated by a CellTiter-Glo Luminescent Cell Viability kit according to manufacturer's instructions. VSMC were cultured in 96-well plates ([…] and 8×10^4 cells/well for experiments of proliferation and cytotoxicity, respectively) and grown for overnight. For cytotoxicity study, fresh basal medium (supplemented with 0.5% fetal bovine serum) containing NC with different concentrations were added into the plates. For proliferation study, VSMC were treated with 20 nM PDGF-BB to stimulate ROS and proliferation. […] Following 10 min incubation at room temperature, the 96-well plates were analyzed in a FlexStation 3 Benchtop Multi-Mode Microplate Reader (Molecular Devices, San Jose, California) (250-ms integration).

[1] = system: balloon-injured carotid arteries; test: Morphometric analysis of IH and restenosis in rat carotid artery balloon angioplasty model; conditions: in vivo
Method: Rat Carotid Artery Balloon Angioplasty Model. All animal experiments conform to the protocols approved by the Animal Care and Use Committee (ACUC) of the University of Virginia. All adult male Sprague-Dawley rats (Charles River, weighing 300-350 g) were maintained in a temperature and humidity-controlled SPF level animal facility under a 12 h light-dark cycle. Food and water were available ad libitum. Animals were randomly assigned to each treatment group. The carotid artery balloon injury model was operated as previously described. In brief, after anesthesia with isoflurane (5% for inducing and 2% for maintaining), a mid-line incision in the neck was made, and the carotid arteries and carotid bifurcation were exposed by blunt dissection. The proximal of left carotid artery, inner carotid artery, and external carotid artery were then temporarily ligated with 5-0 nylon suture to avoid excessive blood loss during the surgery. A 1 mm arteriotomy was created on the distal segment of the external carotid arteries. […] Area inside external elastic lamina (EEL area), area inside internal elastic lamina (IEL area), lumen area, intima area (=IEL area—lumen area), and media area (=EEL area—IEL area) were calculated using Image J. Intimal hyperplasia was defined as the ratio of intima area versus media area (Intima-to-media ratio, I/M ratio).

[2] = in vivo; cited from earlier work

For `COc1cc(OC)c2c(=O)[nH]c(-c3cc(C)c(OCCO)c(C)c3)nc2c1` [RVX], the “effect on VSMC proliferation” value (PDGF-BB-stimulated VSMC) is given as “failed to exert any notable effect”, the “intimal hyperplasia, intima-to-media (I/M) ratio” value [1] is given as “neither free RVX solution nor that delivered through conventional PLGA NP led to any significant changes” and the half-life [2] is given as 1.5 h.
